Measured values published in patent publication US20040037843A1, “Inducing cellular immune responses to prostate cancer antigens using peptide and nucleic acid compositions” (priority 2003, published 2004).

Tests used:
Experiment in all cases: HLA class I binding assay, purified HLA, inhibition of 125I-labelled probe peptide
[1] = molecular target: HLA-A*0201 (Homo sapiens, UniProt P04439, D140Y/D185E/D98H/E176V/E277Q/G131W/G231S/I119V/I121R/I166T/I218V/L300P/L318F/N151K/N90K/P208A/P217A/Q86G/Q94H/R138H/R169H/T345S); details: A*[…], A2 supermotif cross-reactive binding data
[2] = molecular target: HLA-A*0202 (Homo sapiens, UniProt P04439, D140Y/D185E/D98H/E176V/E277Q/G131W/G231S/I119L/I121R/I166T/I218V/L180W/L300P/L318F/N151K/N90K/P208A/P217A/Q67R/Q86G/Q94H/R138H/R169H/T345S); details: A2 supermotif cross-reactive binding data
[3] = molecular target: HLA-A*0203 (Homo sapiens, UniProt P04439, A173T/D140Y/D185E/D98H/E277Q/G131W/G231S/I119V/I121R/I166T/I218V/L180W/L300P/L318F/N151K/N90K/P208A/P217A/Q86G/Q94H/R138H/R169H/T345S); details: A*[…], A2 supermotif cross-reactive binding data
[4] = molecular target: HLA-A*0206 (Homo sapiens, UniProt P04439, D140Y/D185E/D98H/E176V/E277Q/F33Y/G131W/G231S/I119V/I121R/I166T/I218V/L300P/L318F/N151K/N90K/P208A/P217A/Q86G/Q94H/R138H/R169H/T345S); details: A*[…], A2 supermotif cross-reactive binding data
[5] = molecular target: HLA-A*6802 (Homo sapiens, UniProt P04439, A269V/D140Y/D185E/E176V/E277Q/E87N/F33Y/G231S/I121R/I166T/I218V/L180W/L300P/L318F/N151K/P208A/P217A/Q86R/R138H/R169H/S129P/T345S/V36M); details: A2 supermotif cross-reactive binding data; read-out: A*6802 nM

CC(C)C[C@H](NC(=O)[C@H](CO)NC(=O)[C@H](CC(C)C)NC(=O)[C@H](CO)NC(=O)[C@H](C)NC(=O)[C@H](C)NC(=O)[C@H](CCCNC(=N)N)NC(=O)[C@H](C)NC(=O)[C@H](CC(C)C)NC(=O)[C@H](CC(C)C)NC(=O)[C@@H](N)CC(C)C)C(=O)O [Peptide 63.0136]
IC50 [1]: 8.1 nM
IC50 [2]: 3.1 nM
IC50 [3]: 5.3 nM
IC50 [4]: 80 nM

CC(C)C[C@H](NC(=O)[C@H](Cc1c[nH]c2ccccc12)NC(=O)[C@H](Cc1ccccc1)NC(=O)[C@H](Cc1ccccc1)NC(=O)[C@H](CC(C)C)NC(=O)[C@H](CC(C)C)NC(=O)[C@@H](N)Cc1ccccc1)C(=O)N[C@@H](CC(=O)O)C(=O)N[C@@H](CCCNC(=N)N)C(=O)N[C@@H](CO)C(=O)N[C@H](C(=O)O)C(C)C [Peptide 63.0138]
IC50 [1]: 14 nM
IC50 [2]: 17 nM
IC50 [3]: 2.8 nM
IC50 [5]: 364 nM

CC(C)C[C@H](NC(=O)[C@@H](NC(=O)[C@@H](NC(=O)[C@H](Cc1ccccc1)NC(=O)[C@H](CCCCN)NC(=O)[C@H](CC(C)C)NC(=O)[C@H](CCC(=O)O)NC(=O)[C@H](CCCCN)NC(=O)[C@H](C)NC(=O)[C@H](CC(C)C)NC(=O)[C@@H](N)C(C)C)C(C)C)[C@@H](C)O)C(=O)O [Peptide 63.0142]
IC50 [1]: 6.9 nM
IC50 [2]: 8.1 nM
IC50 [3]: 21 nM
IC50 [5]: > 10000 nM

CC(C)C[C@H](NC(=O)[C@H](Cc1ccccc1)NC(=O)[C@@H](NC(=O)[C@@H](N)C(C)C)C(C)C)C(=O)N[C@H](C(=O)N[C@@H](CC(C)C)C(=O)N[C@@H](CO)C(=O)N[C@H](C(=O)N[C@H](C(=O)N[C@@H](Cc1c[nH]c2ccccc12)C(=O)N[C@H](C(=O)O)C(C)C)[C@@H](C)O)C(C)C)[C@@H](C)O [Peptide 63.0185]
IC50 [1]: 89 nM
IC50 [2]: 88 nM
IC50 [3]: 71 nM
IC50 [4]: 336 nM
IC50 [5]: > 10000 nM

CC[C@H](C)[C@H](NC(=O)[C@H](Cc1ccccc1)NC(=O)[C@H](C)NC(=O)[C@H](CCCNC(=N)N)NC(=O)[C@H](CCC(=O)O)NC(=O)[C@H](CC(C)C)NC(=O)[C@H](Cc1ccccc1)NC(=O)[C@H](CCSC)NC(=O)[C@H](CC(C)C)NC(=O)[C@@H](N)CCC(N)=O)C(=O)O [Peptide 1126.16]
IC50 [1]: 98 nM
IC50 [2]: 36 nM
IC50 [3]: 91 nM
IC50 [4]: > 10000 nM
IC50 [5]: 30 nM

CC(C)C[C@H](NC(=O)[C@H](CC(=O)O)NC(=O)CNC(=O)[C@H](CCC(=O)O)NC(=O)[C@@H]1CCCN1C(=O)[C@H](CC(C)C)NC(=O)CN)C(=O)N[C@H](C(=O)N[C@@H](Cc1ccc(O)cc1)C(=O)N[C@H](C(=O)O)C(C)C)C(C)C [Peptide 1389.22]
IC50 [1]: 42 nM
IC50 [2]: 2 nM
IC50 [4]: 112 nM
IC50 [5]: 964 nM

CC(C)C[C@H](NC(=O)[C@H](C)N)C(=O)N[C@@H](CO)C(=O)N[C@H](C(=O)NCC(=O)N[C@@H](CS)C(=O)N[C@H](C(=O)NCC(=O)N[C@H](C(=O)O)C(C)C)[C@@H](C)O)C(C)C [Peptide 1418.15]
IC50 [1]: 24 nM
IC50 [2]: 17 nM
IC50 [3]: 9.1 nM
IC50 [4]: 264 nM
IC50 [5]: > 10000 nM

CC[C@H](C)[C@H](N)C(=O)N[C@@H](CC(C)C)C(=O)N[C@@H](CC(C)C)C(=O)N[C@@H](CO)C(=O)N[C@H](C(=O)NCC(=O)N[C@@H](CS)C(=O)N[C@H](C(=O)NCC(=O)N[C@@H](C)C(=O)N[C@H](C(=O)O)C(C)C)[C@@H](C)O)C(C)C [Peptide 1418.57]
IC50 [1]: 36 nM
IC50 [2]: 33 nM
IC50 [3]: 36 nM
IC50 [5]: > 10000 nM

CC[C@H](C)[C@H](NC(=O)[C@H](Cc1c[nH]c2ccccc12)NC(=O)[C@@H](NC(=O)[C@@H](NC(=O)[C@H](CO)NC(=O)[C@H](CC(C)C)NC(=O)[C@@H](NC(=O)[C@H](CC(C)C)NC(=O)[C@H](Cc1ccccc1)NC(=O)[C@@H](NC(=O)[C@@H](N)C(C)C)C(C)C)[C@@H](C)O)C(C)C)[C@@H](C)O)C(=O)O [Peptide 1419.25]
IC50 [2]: 159 nM
IC50 [3]: 63 nM
IC50 [4]: 2850 nM
IC50 [5]: > 10000 nM

CC(C)C[C@H](NC(=O)[C@@H](N)Cc1ccccc1)C(=O)N[C@@H](CC(N)=O)C(=O)N[C@@H](CCC(=O)O)C(=O)N[C@@H](CO)C(=O)N[C@@H](Cc1ccc(O)cc1)C(=O)N[C@@H](CCCCN)C(=O)N[C@@H](Cc1c[nH]cn1)C(=O)N[C@@H](CCC(=O)O)C(=O)N[C@@H](CCC(N)=O)C(=O)N[C@H](C(=O)O)C(C)C [Peptide 1419.55]
IC50 [2]: 1.4 nM
IC50 [3]: 5.6 nM
IC50 [4]: 381 nM
IC50 [5]: 6150 nM

H-LLSNDMCARV-OH [Peptide 1418.53]
IC50 [1]: 5.3 nM
IC50 [2]: 0.7 nM
IC50 [4]: 10 nM
IC50 [5]: 1700 nM
